According to patent US7659240B2, “Mucin immobilized chromatography” (Vertex Pharmaceuticals Incorporated, priority 2002, dated 2010):
Several values for one entry are separate records, joined by “and”; a condition that tells them apart may be missing. Equal values may be shown once. Where a name gives a salt, the structure may show the parent alone. Read-outs that look alike come from different tables or passages of the source.

Columns and labels:
[1] = system: mucin immobilized to IAM.PC.DD2; assay: HPLC on MIC column (2:1 mucin to PC IAM particles): retention time, k′MIC, derived Km and Peff MIC; settings: for k′MIC / Retention Time: MIC column 2:1 mucin:IAM, MPS pH 7.4; for Retention Time: isocratic 0.3 ml/min; for Dm: membrane diffusion coefficient calculated from molecular weight; for K′MIC: Table 5
Method: [formula] where Dm is the membrane diffusion coefficient of the solute, Km is the membrane equilibrium constant, and L is the membrane thickness (Stein, W., Transport and Diffusion Across Cell Membranes, Academic Press, Orlando, Fla. (1986)). […] Since molecular weight, MW, is proportional to molecular size, Dm may also written as,
[formula] Thus, Dm can be calculated from the molecular weight. Furthermore, Km is calculated by the following equation, Km−(Vm/Vs)k′, [4] where Vm is the volume of the mobile phase, Vs is the internal volume of the stationary phase, and k′ is the partition ratio (Pidgeon and Ong, Chemtech. June, 38-48 (1995)). The partition ratio is determined by the equation, k′−(tr−to)/to, [5] where tr is the retention time of the drug and to is the void volume of the column. Both tr and to can be experimentally determined in order to obtain k′.
Equation 2 can be used to determine Km for a given MIC medium. Both Dm and L are known from the discussion above, and Peff can be calculated for various drugs having known in vivo absorption. For example, a number of drug permeability coefficients, Peff, derived from in vivo experiments are listed in literature. […] See Example 5 below.

[2] = system: mucin immobilized to PC IAM particles; assay: pH and mucin layer thickness dependence of partition ratio on MIC columns (1:2 and 2:1); settings: for (1:2) k′ (pH 3) / (1:2) k′ (pH 5) / (1:2) k′ (pH 7): column 1:2 mucin to PC IAM, 0.32 μm mucin layer; for (1:2) k′ (pH 3) / (2:1) k′ (pH 3): mobile phase pH 3; for (1:2) k′ (pH 5) / (2:1) k′ (pH 5): mobile phase pH 5; for (1:2) k′ (pH 7) / (2:1) k′ (pH 7): mobile phase pH 7; for (2:1) k′ (pH 3) / (2:1) k′ (pH 5) / (2:1) k′ (pH 7): column 2:1 mucin to PC IAM, 0.36 μm mucin layer; for k′MIC (1:2): column 1:2, 0.32 μm; for k′MIC (1:2) / k′MIC (2:1): pH 7, Table 9; for k′MIC (2:1): column 2:1, 0.36 μm
[3] = cited from earlier work
[4] = single-pass perfusions, cited from earlier work

k′MIC [1] | Retention Time [1] | Dm [1] | (1:2) k′ (pH 3) [2] | (1:2) k′ (pH 5) [2] | (1:2) k′ (pH 7) [2] | (2:1) k′ (pH 3) [2] | (2:1) k′ (pH 5) [2] | (2:1) k′ (pH 7) [2] | K′MIC ([1]; MIC 2:1) | δ = log k′MIC − log k′IAM [1] | log k′MIC ([1]; MIC 2:1) | Peff MIC (×10^−4 cm/s) [1] | Structure (SMILES) | k′MIC (1:2) [2] | k′MIC (2:1) [2] | % Absorbed ([3]; Table 5) | % Absorbed ([3]; Table 6) | Peff Loc-I-Gut (×10^−4 cm/s) ([4]; Table 5) | Peff Loc-I-Gut (×10^−4 cm/s) ([4]; Table 6) | Peff Loc-I-Gut (×10^−4 cm/s) ([4]; Table 9)
46.1429 | 3.3 | 0.0035 | 54.00 | 64.00 | 42.33 | 43.29 | 49.00 | 82.33 | – | – | – | – | C=CCc1ccccc1OCC(O)CNC(C)C (stereo not shown) [Alprenolol] | – | – | – | – | – | – | –
– | – | – | 10.67 | 29.00 | 12.33 | none | 13.29 | 57.33 | – | – | – | – | CN(Cc1cnc2nc(N)nc(N)c2n1)c1ccc(C(=O)N[C@@H](CCC(=O)O)C(=O)O)cc1 [amethopterin] | – | – | – | – | – | – | –
33.5714 | 2.4 | 0.0044 | 25.67 | 15.67 | 25.67 | 20.43 | 20.43 | 24.00 | – | – | – | – | Nc1nc2c(ncn2COCCO)c(=O)[nH]1 [Acyclovir] | – | – | – | – | – | – | –
– | – | – | none | 30.67 | 30.67 | none | 19.00 | 34.00 | – | – | – | – | COc1ccc(Cl)cc1C(=O)NCCc1ccc(S(=O)(=O)NC(=O)NC2CCCCC2)cc1 [glybenclamide] | – | – | – | – | – | – | –
33.2857 | 2.4 | 0.0047 | – | – | – | – | – | – | 33.29 | – | – | 0.10 ×10^−4 cm/s | C[C@](N)(Cc1ccc(O)c(O)c1)C(=O)O [α-methyldopa] | – | – | 0% | – | 0.2 ×10^−4 cm/s | – | –
53.2857 | 3.8 | 0.0044 | – | – | – | – | – | – | – | – | – | – | CC(C)Cc1ccc(C(C)C(=O)O)cc1 (stereo not shown) [Ibuprofen] | – | – | – | – | – | – | –
– | – | 0.0039 and 0.0040 | 25.67 | 29.00 | 44.00 | 17.57 | 23.29 | 35.67 | – | – | – | – | CN/C(=N/CCSCc1nc[nH]c1C)NC#N [Cimetidine] | – | – | – | – | – | – | –
36.1429 | 2.6 | 0.0023 | – | – | – | – | – | – | – | – | – | – | CC(C)(C)NC[C@H](O)COc1nsnc1N1CCOCC1 [Timolol] | – | – | – | – | – | – | –
– | – | – | 30.67 | 44.00 | 110.67 | 23.29 | 34.71 | 95.67 | – | – | – | – | O=C(CCCN1CCC(O)(c2ccc(Cl)cc2)CC1)c1ccc(F)cc1 [haloperidol] | – | – | – | – | – | – | –
53.2857 | 3.8 | 0.0027 | 24.00 | 24.00 | 32.33 | 79.00 | 90.43 | 132.33 | – | – | – | – | CC(CCc1ccccc1)NCC(O)c1ccc(O)c(C(N)=O)c1 (stereo not shown) [Labetalol] | – | – | – | – | – | – | –

Continued, compound first:

Structure (SMILES) | k′MIC [1] | Retention Time [1] | Dm [1] | (1:2) k′ (pH 3) [2] | (1:2) k′ (pH 5) [2] | (1:2) k′ (pH 7) [2] | (2:1) k′ (pH 3) [2] | (2:1) k′ (pH 5) [2] | (2:1) k′ (pH 7) [2] | K′MIC ([1]; MIC 2:1) | δ = log k′MIC − log k′IAM [1] | log k′MIC ([1]; MIC 2:1) | Peff MIC (×10^−4 cm/s) [1] | k′MIC (1:2) [2] | k′MIC (2:1) [2] | % Absorbed ([3]; Table 5) | % Absorbed ([3]; Table 6) | Peff Loc-I-Gut (×10^−4 cm/s) ([4]; Table 5) | Peff Loc-I-Gut (×10^−4 cm/s) ([4]; Table 6) | Peff Loc-I-Gut (×10^−4 cm/s) ([4]; Table 9)
CC(C(=O)O)c1cccc(C(=O)c2ccccc2)c1 (stereo not shown) [Ketoprofen] | 52.5714 | 3.8 | 0.0039 | 25.67 | 29.00 | 82.33 | 20.43 | 27.57 | 70.67 | 52 | – | – | – | 82.3 | 70.7 | – | – | – | – | –
CC(=O)Nc1ccc(O)cc1 [acetaminophen] | 38.2857 | 2.8 | 0.0066 | 64.00 | 65.67 | 64.00 | 50.43 | 51.86 | 62.33 | – | – | – | – | – | – | – | – | – | – | –
O=C(O)c1cc(/N=N/c2ccc(S(=O)(=O)Nc3ccccn3)cc2)ccc1O [sulfasalazine] | 71.8571 | 5.1 | 0.0025 | 87.33 | 85.67 | 24.00 | 70.43 | 67.57 | 22.33 | – | – | – | – | – | – | – | – | – | – | –
CC(COc1ccccc1)N(CCCl)Cc1ccccc1 (stereo not shown) [Phenoxybenzamine HCl] | – | – | – | 20.67 | 29.00 | 29.00 | 20.43 | 17.57 | 15.67 | – | – | – | – | – | – | – | – | – | – | –
CC(=O)CC(c1ccccc1)c1c(O)c2ccccc2oc1=O (stereo not shown) [Warfarin] | 54.7143 | 3.9 | 0.0032 | 25.67 | 30.67 | 39.00 | 21.86 | 24.71 | 19.00 | – | 0.59 | 1.74 | – | – | – | – | – | – | – | –
NCC(=O)O [glycine] | – | – | – | none | none | none | none | none | none | – | – | – | – | – | – | – | – | – | – | –
COc1ccc(CCN(C)CCCC(C#N)(c2ccc(OC)c(OC)c2)C(C)C)cc1OC (stereo not shown) [Verapamil] | 71.8571 | 5.1 | 0.0020 | – | – | – | – | – | – | 71.86 | – | – | – | – | – | – | – | – | – | –
OC[C@@H](O)[C@@H](O)[C@H](O)[C@H](O)CO [Mannitol] | 33.4286 | 2.4 | 0.0055 | – | – | – | – | – | – | – | – | – | – | – | – | – | – | – | – | –
COc1ccc2cc([C@H](C)C(=O)O)ccc2c1 [Naproxen] | – | – | – | – | – | – | – | – | – | – | – | – | – | – | – | 100% | 100% | 8.0 ×10^−4 cm/s | 8.0 ×10^−4 cm/s | 8.0 ×10^−4 cm/s
NS(=O)(=O)c1cc(C(=O)O)c(NCc2ccco2)cc1Cl [Furosemide] | – | – | – | 40.67 | 37.33 | 35.67 | 30.43 | 27.57 | 25.67 | – | – | – | – | 35.7 | 25.7 | 60% | – | 0.3 ×10^−4 cm/s | – | 0.3 ×10^−4 cm/s
CC(C)C[C@H](N)C(=O)O [leucine] | – | – | – | none | none | none | none | none | none | – | – | – | – | – | – | – | – | – | – | –
CC(=O)Oc1ccccc1C(=O)O [acetyl salicylic acid] | 38.5714 | 2.8 | 0.0055 | 34.00 | 40.67 | 22.33 | 30.43 | 24.71 | 20.67 | – | – | – | – | – | – | – | – | – | – | –
CC(C)NCC(O)COc1ccc(CC(N)=O)cc1 (stereo not shown) [Atenolol] | – | – | – | 39.00 | 39.00 | 39.00 | 29.00 | 31.86 | 37.33 | – | – | – | – | 39 | 37 | 50% | 50% | 0.15 ×10^−4 cm/s | 0.15 ×10^−4 cm/s | 0.2 ×10^−4 cm/s
C=C[C@H]1C[N@@]2CC[C@H]1C[C@@H]2[C@@H](O)c1ccnc2ccc(OC)cc12 [quinidine, HCl] | 70.4286 | 5.0 | 0.0026 | – | – | – | – | – | – | – | – | – | – | – | – | – | – | – | – | –
Cn1c(=O)c2c(ncn2C)n(C)c1=O [Caffeine] | 37.5714 | 2.7 | 0.0051 | 44.00 | 44.00 | 45.67 | 34.71 | 34.71 | 39.00 | – | – | – | – | – | – | – | – | – | – | –
